Results from US8030443B2, “Squamous cell carcinoma antigen-derived peptide binding to HLA-A24 molecule” (Kurume University, priority 2005, dated 2011).

Test system: peptide-specific IgG in sera of cancer patients and healthy donors
Assay: Measurement of anti-peptide IgG in plasma by LUMINEX multiplexed flow cytometric assay
Assay type: binding, human
Experimental: The levels of anti-peptide immunoglobulin G (IgG) were measured by the LUMINEX™ system (multiplexed flow cytometric assay) as previously reported (Komatsu N, Shichijo S, Nakagawa M, Itoh K. New multiplexed flow cytometric assay to measure anti-peptide antibody: a novel tool for monitoring immune responses to peptides used for immunization. Scand J Clin Lab Invest 2004; 64:1-11). In brief, plasma was incubated with 25 μl of peptide-coupled color-coded beads for 2 hr at room temperature on a plate shaker. After incubation, the mixture was washed with a vacuum manifold apparatus and incubated with 100 μl of biotinylated goat anti-human IgG (γ chain-specific)(BA-3080, Vector Laboratories, Burlingame, Calif., USA) for 1 h at room temperature. The plate was then washed, followed by the addition of 100 μl of streptavidin-PE (S-866, Molecular Probes, Eugene, Oreg., USA) into wells, and was incubated for 30 min at room temperature on a plate shaker. The bound beads were washed three times followed by the addition of 100 μl of Tween-PBS into each well. Fifty μl of sample was detected using the LUMINEX™ system (multiplexed flow cytometric assay). To confirm the specificity of IgG to a SCCA peptide, sample plasma was cultured in plates coated with a corresponding SCCA peptide, or with an irrelevant SCCA peptide. After the operation was repeated three times, the levels of the corresponding SCCA peptide-specific IgG in the resulting supernatant were determined by the LUMINEX™ system (multiplexed flow cytometric assay).
These 9 SCCA-derived peptides were screened based on their ability to be recognized by IgG in cancer patients. Peptide-specific IgG was measured by a multiplexed flow cytometric assay (LUMINEX™ (multiplexed flow cytometric assay)). The plasma samples were derived from 35 uterine cervical SCC patients, 10 breast adenocarcinoma patients, 10 pancreatic adenocarcinoma patients, 10 gastric adenocarcinoma, and 6 colon adenocarcinoma patients. The level of fluorescence intensity was judged to be significant when exceeded 100 at an 1/100 dilution.

EFHCNHPFL (SCCA 362-370 peptide) [SCCA-derived peptide, position 362-370]
Total: healthy donors with significant peptide-reactive IgG / donors tested (10 healthy donors, significant when fluorescence intensity exceeded 100 at 1/100 dilution): 1/10
Total: cancer patients with significant peptide-reactive IgG / patients tested (71 cancer patients, significant when fluorescence intensity exceeded 100 at 1/100 dilution): 10/71
Fluorescence intesity (serum of Breast Ca. patient #36, 1:100 dilution): 10
Fluorescence intesity (serum of Breast Ca. patient #37, 1:100 dilution): 24
Fluorescence intesity (serum of Breast Ca. patient #38, 1:100 dilution): 8
Fluorescence intesity (serum of Breast Ca. patient #39, 1:100 dilution): 11
Fluorescence intesity (serum of Breast Ca. patient #40, 1:100 dilution): 7
Fluorescence intesity (serum of Breast Ca. patient #41, 1:100 dilution): 215
Fluorescence intesity (serum of Breast Ca. patient #42, 1:100 dilution): 19
Fluorescence intesity (serum of Breast Ca. patient #43, 1:100 dilution): 10
Fluorescence intesity (serum of Breast Ca. patient #44, 1:100 dilution): 0
Fluorescence intesity (serum of Breast Ca. patient #45, 1:100 dilution): 20
Fluorescence intesity (serum of Colon Ca. patient #66, 1:100 dilution): 0
Fluorescence intesity (serum of Colon Ca. patient #67, 1:100 dilution): 0
Fluorescence intesity (serum of Colon Ca. patient #68, 1:100 dilution): 0
Fluorescence intesity (serum of Colon Ca. patient #69, 1:100 dilution): 0
Fluorescence intesity (serum of Colon Ca. patient #70, 1:100 dilution): 1
Fluorescence intesity (serum of Colon Ca. patient #71, 1:100 dilution): 19
Fluorescence intesity (serum of Gastric Ca. patient #56, 1:100 dilution): 0
Fluorescence intesity (serum of Gastric Ca. patient #57, 1:100 dilution): 0
Fluorescence intesity (serum of Gastric Ca. patient #58, 1:100 dilution): 6
Fluorescence intesity (serum of Gastric Ca. patient #59, 1:100 dilution): 10
Fluorescence intesity (serum of Gastric Ca. patient #60, 1:100 dilution): 0
Fluorescence intesity (serum of Gastric Ca. patient #61, 1:100 dilution): 1
Fluorescence intesity (serum of Gastric Ca. patient #62, 1:100 dilution): 0
Fluorescence intesity (serum of Gastric Ca. patient #63, 1:100 dilution): 0
Fluorescence intesity (serum of Gastric Ca. patient #64, 1:100 dilution): 0
Fluorescence intesity (serum of Gastric Ca. patient #65, 1:100 dilution): 0
Fluorescence intesity (serum of Healthy Donor #1, 1:100 dilution): 0
Fluorescence intesity (serum of Healthy Donor #2, 1:100 dilution): 37
Fluorescence intesity (serum of Healthy Donor #3, 1:100 dilution): 0
Fluorescence intesity (serum of Healthy Donor #4, 1:100 dilution): 0
Fluorescence intesity (serum of Healthy Donor #5, 1:100 dilution): 0
Fluorescence intesity (serum of Healthy Donor #6, 1:100 dilution): 0
Fluorescence intesity (serum of Healthy Donor #7, 1:100 dilution): 0
Fluorescence intesity (serum of Healthy Donor #8, 1:100 dilution): 283
Fluorescence intesity (serum of Healthy Donor #9, 1:100 dilution): 29
Fluorescence intesity (serum of Healthy Donor #10, 1:100 dilution): 0
Fluorescence intesity (serum of Pancreas Ca. patient #46, 1:100 dilution): 0
Fluorescence intesity (serum of Pancreas Ca. patient #47, 1:100 dilution): 1
Fluorescence intesity (serum of Pancreas Ca. patient #48, 1:100 dilution): 339
Fluorescence intesity (serum of Pancreas Ca. patient #49, 1:100 dilution): 0
Fluorescence intesity (serum of Pancreas Ca. patient #50, 1:100 dilution): 0
Fluorescence intesity (serum of Pancreas Ca. patient #51, 1:100 dilution): 0
Fluorescence intesity (serum of Pancreas Ca. patient #52, 1:100 dilution): 104
Fluorescence intesity (serum of Pancreas Ca. patient #53, 1:100 dilution): 0
Fluorescence intesity (serum of Pancreas Ca. patient #54, 1:100 dilution): 6
Fluorescence intesity (serum of Pancreas Ca. patient #55, 1:100 dilution): 0
Fluorescence intesity (serum of Uterine cervical Ca. patient #1, 1:100 dilution): 0
Fluorescence intesity (serum of Uterine cervical Ca. patient #2, 1:100 dilution): 0
Fluorescence intesity (serum of Uterine cervical Ca. patient #3, 1:100 dilution): 0
Fluorescence intesity (serum of Uterine cervical Ca. patient #4, 1:100 dilution): 0
Fluorescence intesity (serum of Uterine cervical Ca. patient #5, 1:100 dilution): 3
Fluorescence intesity (serum of Uterine cervical Ca. patient #6, 1:100 dilution): 611
Fluorescence intesity (serum of Uterine cervical Ca. patient #7, 1:100 dilution): 11
Fluorescence intesity (serum of Uterine cervical Ca. patient #8, 1:100 dilution): 49
Fluorescence intesity (serum of Uterine cervical Ca. patient #9, 1:100 dilution): 90
Fluorescence intesity (serum of Uterine cervical Ca. patient #10, 1:100 dilution): 15
Fluorescence intesity (serum of Uterine cervical Ca. patient #11, 1:100 dilution): 28
Fluorescence intesity (serum of Uterine cervical Ca. patient #12, 1:100 dilution): 37
Fluorescence intesity (serum of Uterine cervical Ca. patient #13, 1:100 dilution): 25
Fluorescence intesity (serum of Uterine cervical Ca. patient #14, 1:100 dilution): 17
Fluorescence intesity (serum of Uterine cervical Ca. patient #15, 1:100 dilution): 106
Fluorescence intesity (serum of Uterine cervical Ca. patient #16, 1:100 dilution): 191
Fluorescence intesity (serum of Uterine cervical Ca. patient #17, 1:100 dilution): 56
Fluorescence intesity (serum of Uterine cervical Ca. patient #18, 1:100 dilution): 50
Fluorescence intesity (serum of Uterine cervical Ca. patient #19, 1:100 dilution): 48
Fluorescence intesity (serum of Uterine cervical Ca. patient #20, 1:100 dilution): 104
Fluorescence intesity (serum of Uterine cervical Ca. patient #21, 1:100 dilution): 22
Fluorescence intesity (serum of Uterine cervical Ca. patient #22, 1:100 dilution): 27
Fluorescence intesity (serum of Uterine cervical Ca. patient #23, 1:100 dilution): 56
Fluorescence intesity (serum of Uterine cervical Ca. patient #24, 1:100 dilution): 1234
Fluorescence intesity (serum of Uterine cervical Ca. patient #25, 1:100 dilution): 21
Fluorescence intesity (serum of Uterine cervical Ca. patient #26, 1:100 dilution): 83
Fluorescence intesity (serum of Uterine cervical Ca. patient #27, 1:100 dilution): 36
Fluorescence intesity (serum of Uterine cervical Ca. patient #28, 1:100 dilution): 153
Fluorescence intesity (serum of Uterine cervical Ca. patient #29, 1:100 dilution): 20
Fluorescence intesity (serum of Uterine cervical Ca. patient #30, 1:100 dilution): 35
Fluorescence intesity (serum of Uterine cervical Ca. patient #31, 1:100 dilution): 133
Fluorescence intesity (serum of Uterine cervical Ca. patient #32, 1:100 dilution): 23
Fluorescence intesity (serum of Uterine cervical Ca. patient #33, 1:100 dilution): 93
Fluorescence intesity (serum of Uterine cervical Ca. patient #34, 1:100 dilution): 16
Fluorescence intesity (serum of Uterine cervical Ca. patient #35, 1:100 dilution): 21
